# Data reported in US11213507B2, “MRSA biofilm inhibition” (University of South Florida, priority 2016, dated 2022).
# Assays:
# [1] = system: methicillin-resistant Staphylococcus aureus (MRSA) CBD-635; assay: Broth dilution MIC assay against clinical MRSA strain; assay type: cell-based
# Description: (§1) Spongian diterpenes are well known as bioactive natural products. Darwinolide was screened for activity against a clinical strain of a highly resistant Staphylococcus aureus (MRSA). […] The remaining colony was subjected to a cell recovery experiment overnight after washout of darwinolide. […] Based on the 4-fold selectivity of darwinolide for MRSA biofilms over planktonic cells, and its low mammalian cytotoxicity, darwinolide presents a highly suitable scaffold for the development of urgently needed, novel anti-biofilm-specific antibiotics.
# (§2) A clinical, multi-drug resistant strain of MRSA (CBD-635) was used in these studies for minimum inhibitory concentration (MIC) determination and assessment of anti-biofilm properties, all as described previously (Fleeman et al., J. Med. Chem. 2015, 58, 3340-3355).
# [2] = system: MRSA biofilm (CBD-635); assay: In vitro MRSA biofilm assay; assay type: cell-based, Staphylococcus aureus
# Description: as §1, §2
# [3] = system: methicillin-resistant Staphylococcus aureus (MRSA) CBD-635; assay type: cell-based
# Description: as §1, §2
# [4] = Cytotoxicity assay (MTS, 72 h) in J774 macrophage cell line; assay type: cell-based; details: mouse, J774.A-1 macrophage cell line
# Description: as §1
# The J774.A-1 cell line was used for cytotoxicity screening via a colorometric method employing a tetrazolium derivative [3-(4,5-dimethylthiazol-2-yl)-5-(3-carboxymethoxyphenyl)-2-(4-sulfophenyl)-2H-tetrazolium] (MTS) 72 h assay using 50000 […] per well, and an electron-coupling reagent, and penazine methosulphate (PMS) were used in the assay. IC50 values were calculated from sigmoidal inhibition curves using SigmaPlot 11.0 software (von Salm et al., J. Org. Lett. 2014, 16, 2630-2633).
smiles,measurement,setting,value
CC(=O)O[C@@H]1O[C@H]2OC(=O)C3=C(C)[C@@H]([C@@]4(C)CCCC(C)(C)C4)CC[C@@H]1[C@H]32 [darwinolide],MIC,[1],133 µM
same,IC50,"[2]; Staphylococcus aureus, biofilm established in vitro with same MRSA strain, read-out: IC50 against the biofilm",33.2 µM
same,selectivity for MRSA biofilms over planktonic cells,[2]; biofilm IC50 vs planktonic MIC,4 fold
same,cytotoxic or cytostatic toward S. aureus,[3]; conclusion from cell recovery experiment,"cytotoxic, rather than cytostatic"
same,treated bacterium able to recover and grow,"[3]; overnight recovery after washout of darwinolide, colony remaining from MIC assay",1.6%
same,IC50 at 72 h,[4],73.4 µM
